From US5622942A, “Percutaneous absorptive anesthetic” (priority 1993, dated 1997)

Columns and labels:
skin [1] = experiment: Preparatory pinprick test of skin anesthesia effect, 3% absorption promoter and 2% lidocaine aqueous gel-ointment; assay type: in vivo, healthy adult (human); conditions: for time at which effect of the skin anesthesia began / time of complete skin anesthesia: after application, 3% promoter + 2% lidocaine; for skin anesthesia effect, in words: pinprick, up to 4 hours after application
Experimental: Same as that in the experimental example 1.
A preparatory experiment was carried out to verify the skin anesthesia effect of various lidocaine aqueous gel-ointments when they are applied in the quantity of 0.3 g/4 cm^2.
Pinprick test was carried out to compare results utilizing lidocaine aqueous gel-ointment which was prepared by mixing the ointments d-h, Xylocaine Jelly (Trademark registered, containing 2% lidocaine, made by Fujisawa Pharmaceutical Co., Ltd.), Azone, a known percutaneous absorption promoter, sodium caprate (to be indicated as Cap Na hereinafter) and isopropyl myristate (to be indicated as IPM hereinafter).
The skin over which various ointments were applied was pierced several times using a 26 gauge intradermal needle at the time of 1, 1.5, 2, 3 and 4 hours after the application, and the degree of pain felt by the adult was evaluated according to a criterion given below.
++ No pain felt at the area where the ointment was applied.
+ Pain felt at some portions.
- Pain felt at that area.

[2] = Acute toxic examination (LD50), oral, rat; conditions: in vivo
Experimental: The results of acute toxic examination (LD50) which was carried out with the rat through the oral dose of the compound were follows.

[3] = Lidocaine blood concentration after application of ointment to the rat abdomen (fluorescence polarization immunoassay); assay type: in vivo, Wistar rat
Description: (1) Experimental Animal Wistar rat a. Aqueous gel ointment containing 2% of lidocaine. b. Aqueous gel ointment containing 10% of lidocaine. c. Aqueous gel ointment in (b) containing 3% of compound 4. e. Aqueous gel ointment in (a) containing 3% of compound 4. […] Group with an ointment a applied. Group with an ointment e applied. […] Group with an ointment c applied. Group with 3% Azone (Trademark registered)--10% lidocaine aqueous gel-ointment applied. […] In these groups, the rats had their body portion covered with a polyethylene food wrapping sheet at an area where an ointment was applied, and sealed by means of transparent tape. Then, a blood was withdrawn through a cannula which had been inserted into the carotid. The blood was pretreated with a heparin and separated by means of centrifugal separator to obtain blood plasma. A fluorescence polarization immunoassay was used to determine the concentration of the lidocaine in the blood.

skin [4] = experiment: Double-blind pinprick procedure pain score at the vein puncture area in patients; assay type: in vivo, patient (human); conditions: ointment c versus ointment b, p<0.05
Experimental: A patient who was to receive an operation.
The sponge was applied over an area in which the vein is punctured in accordance with a double-blind assay method. The area was sealed off with a transparent tape, and the topical reaction and the painless effect occurring on the skin were compared about 1 hour later.
The following pain score was employed as a criterion.
When the pain score was zero, the needle was pierced into the skin about 1.0 mm deep to verify the pain.

## CC1(C)[C@@H](OC(=O)c2ccccc2C(=O)O)CC[C@]2(C)[C@H]3C=CC4=C5C[C@@](C)(COC(=O)c6ccccc6C(=O)O)CC[C@]5(C)CC[C@@]4(C)[C@]3(C)CC[C@@H]12 [Compound 7, Olean-11,13(18)-diene-3 β, 30-diol-3 β, 30-dihemiphthalate]
Skin [1]
  time at which effect of the skin anesthesia began: 1.5 h
  time of complete skin anesthesia: 2 h
[2]
  LD50: 628 to 793 mg/kg

## CC1(C)[C@@H](OC(=O)c2ccccc2C(=O)O)CC[C@]2(C)[C@H]3CC=C4[C@@H]5C[C@@](C)(COC(=O)c6ccccc6C(=O)O)CC[C@]5(C)CC[C@@]4(C)[C@]3(C)CC[C@@H]12 [Compound 5, 18β-olean-12-ene-3 β, 30-diol-3 β, 30-dihemiphthalate]
Skin [1]
  skin anesthesia effect, in words: skin anesthesia effect substantially equal to that by Azone
[2]
  LD50: 1260 to 1520 mg/kg

## CCCCCCCCCCCCN1CCCCCC1=O [Azone, reference compound]
[3]; rat, in vivo
  absorption promoting effect (lidocaine blood concentration): no major effect of improving absorption was found

## CC1(C)[C@@H](OC(=O)CCC(=O)O)CC[C@]2(C)[C@H]3C(=O)C=C4[C@@H]5C[C@@](C)(C(=O)O)CC[C@]5(C)CC[C@@]4(C)[C@]3(C)CC[C@@H]12 [Compound 3, Glycyrrhetic acid 3β-monohemisuccinate]
Skin [1]
  time at which effect of the skin anesthesia began: 1.5 h
  time of complete skin anesthesia: 2 h
[2]
  LD50: 520 mg/kg

## CC1(C)[C@@H](OC(=O)c2ccccc2C(=O)O)CC[C@]2(C)[C@H]3C(=O)C=C4[C@@H]5C[C@@](C)(C(=O)O)CC[C@]5(C)CC[C@@]4(C)[C@]3(C)CC[C@@H]12 [Compound 4, Glycyrrhetic acid 3β-monohemiphthalate]
[3]; 2% lidocaine ointments (groups 1 and 2), with or without 3% compound 4
  lidocaine blood concentration: any significant result was not observed
[3]; 10% lidocaine aqueous gel ointment (groups 3-5), 3% promoter, up to five hours
  absorption promoting effect (lidocaine blood concentration): an absorption promoting effect of the compound 4 was acknowledged
Skin [1]
  time at which effect of the skin anesthesia began: 1.5 h
  time of complete skin anesthesia: 2 h
Skin [4]
  effect in removing the pain of the skin, in words: effective in removing the pain of the skin
[2]
  LD50: 1320 mg/kg

## CC1(C)[C@@H](OC(=O)c2ccccc2C(=O)O)CC[C@]2(C)C3=CC=C4[C@@H]5C[C@@](C)(COC(=O)c6ccccc6C(=O)O)CC[C@]5(C)CC[C@@]4(C)[C@]3(C)CC[C@@H]12 [Compound 6, 18β-olean-9(11), 12-diene-3 β, 30-diol-3 β, 30-dihemiphthalate]
Skin [1]
  skin anesthesia effect, in words: skin anesthesia effect substantially equal to that by Azone
[2]
  LD50: 1280 to 1500 mg/kg
